Experimental data reported in paper PMC12441834, “Highly Potent and Subtype-Selective Sperm-Specific Potassium Channel SLO3 Inhibitors Display High Tissue Exposure in the Murine Female Reproductive Tract” (ACS Pharmacology & Translational Science, 2025).

Columns and labels:
[1] = molecular target: T1, hERG (Homo sapiens, UniProt Q12809); assay: hERG patch clamp electrophysiology (HEK-293-hERG); assay type: cell-based; conditions: for selectivity ratio: pH 7.35, hERG IC50 / hSLO3 IC50, read-out: hERG selectivity [fold] (SLO3 versus hERG); for IC50: whole-cell patch clamp, HEK-293-hERG
T1 construct: expressed in transfected cells
T1 sequence (Q12809 whole entry): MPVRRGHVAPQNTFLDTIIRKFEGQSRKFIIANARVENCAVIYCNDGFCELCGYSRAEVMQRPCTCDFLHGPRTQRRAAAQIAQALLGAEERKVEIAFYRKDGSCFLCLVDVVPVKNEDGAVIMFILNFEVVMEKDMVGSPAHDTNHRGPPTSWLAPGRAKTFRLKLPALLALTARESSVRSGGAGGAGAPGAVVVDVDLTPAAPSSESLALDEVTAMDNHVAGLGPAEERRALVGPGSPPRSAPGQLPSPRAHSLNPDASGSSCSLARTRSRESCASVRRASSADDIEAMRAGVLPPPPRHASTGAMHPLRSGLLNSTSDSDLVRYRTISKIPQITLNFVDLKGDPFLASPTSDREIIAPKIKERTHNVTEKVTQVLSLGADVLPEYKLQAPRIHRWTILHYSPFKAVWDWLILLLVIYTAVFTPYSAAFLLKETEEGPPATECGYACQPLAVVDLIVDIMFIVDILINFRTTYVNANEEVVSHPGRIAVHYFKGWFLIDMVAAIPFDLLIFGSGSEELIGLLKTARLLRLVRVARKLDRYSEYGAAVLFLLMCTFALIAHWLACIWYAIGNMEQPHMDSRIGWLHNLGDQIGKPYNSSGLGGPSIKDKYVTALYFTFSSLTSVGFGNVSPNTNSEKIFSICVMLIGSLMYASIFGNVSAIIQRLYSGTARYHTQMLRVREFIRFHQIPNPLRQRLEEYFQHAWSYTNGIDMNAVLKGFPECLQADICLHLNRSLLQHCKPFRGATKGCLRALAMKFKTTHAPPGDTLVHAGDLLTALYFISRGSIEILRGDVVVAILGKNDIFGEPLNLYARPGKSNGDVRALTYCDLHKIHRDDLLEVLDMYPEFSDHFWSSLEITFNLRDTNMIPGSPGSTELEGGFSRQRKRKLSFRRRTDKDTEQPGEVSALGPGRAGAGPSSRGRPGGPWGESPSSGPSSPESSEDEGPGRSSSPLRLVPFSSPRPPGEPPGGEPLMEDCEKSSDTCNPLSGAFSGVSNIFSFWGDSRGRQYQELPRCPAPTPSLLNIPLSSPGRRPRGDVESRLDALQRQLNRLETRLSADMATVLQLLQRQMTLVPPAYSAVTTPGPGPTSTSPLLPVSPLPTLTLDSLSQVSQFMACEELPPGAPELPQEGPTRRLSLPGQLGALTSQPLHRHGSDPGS
Protocol: Whole-cell patch-clamp electrophysiology was used to record hERG currents from a stably transfected monoclonal cell line expressing human hERG. The HEK-293-hERG cell line was generously provided by Dr. David Weaver (Vanderbilt University). Cells were cultured in a 5% CO2 incubator at 37 °C, dissociated with 0.25% Trypsin-EDTA, and seeded onto 12 mm circular coverslips (Electron Microscopy Sciences, PA, USA) for same-day whole-cell patch-clamp recordings. hERG currents were recorded at room temperature by using an AxoPatch 200B amplifier with Clampex 10.7 software (Molecular Devices, USA). The voltage-clamp protocol consisted of a 4-s step to +30 mV from a −80 mV holding potential, followed by a 4-s step to −40 mV, repeated every 10 s. Data were sampled at 5 kHz and filtered at 1 kHz. Patch pipettes, pulled from 1.5 mm OD thin-walled capillaries (Warner Instruments, MA, USA) using a Sutter P-1000 puller (Sutter Instrument, CA, USA), had resistances of 2–3 MΩ when filled with intracellular solution containing (mM): 135 KCl, 10 HEPES, 1 EGTA, 2 MgCl2, 2 Na2ATP (pH 7.35, adjusted with KOH). The extracellular solution contained (mM): 135 NaCl, 5 KCl, 2 CaCl2, 1 MgCl2, 5 Glucose, 10 HEPES, and 10 Sucrose (pH 7.35, adjusted with NaOH). After establishing stable baseline hERG currents, cells were perfused with compounds at concentrations of 0.03–30 μM until response saturation (typically 2–8 min). Recordings concluded with a 10 μM Quinidine solution to isolate Quinidine-sensitive currents, with compound responses expressed as fractions of this current. Peak “tail” current amplitudes at the beginning of −40 mV steps were analyzed using Clampfit 11.2 (Molecular Devices). IC50 values were calculated by fitting the Hill equation to concentration–response curves (CRCs) using the built-in Y = Bottom + (Top – Bottom)/(1 + (IC50/X)^HillSlope) model (nonlinear regression fit: [Inhibitor] vs response – Variable slope (four parameters)) in GraphPad Prism 10.4 (GraphPad Software).

[2] = molecular target: T2, hSLO2.1 (Homo sapiens, UniProt Q6UVM3); assay: SLO2.1 inhibition in HEK cells; assay type: cell-based; conditions: HEK293; read-out: HEK hSLO2.1 % inhib. 10 μM
T2 construct: expressed in transfected cells; host or cells: HEK
T2 sequence (Q6UVM3 1-1135): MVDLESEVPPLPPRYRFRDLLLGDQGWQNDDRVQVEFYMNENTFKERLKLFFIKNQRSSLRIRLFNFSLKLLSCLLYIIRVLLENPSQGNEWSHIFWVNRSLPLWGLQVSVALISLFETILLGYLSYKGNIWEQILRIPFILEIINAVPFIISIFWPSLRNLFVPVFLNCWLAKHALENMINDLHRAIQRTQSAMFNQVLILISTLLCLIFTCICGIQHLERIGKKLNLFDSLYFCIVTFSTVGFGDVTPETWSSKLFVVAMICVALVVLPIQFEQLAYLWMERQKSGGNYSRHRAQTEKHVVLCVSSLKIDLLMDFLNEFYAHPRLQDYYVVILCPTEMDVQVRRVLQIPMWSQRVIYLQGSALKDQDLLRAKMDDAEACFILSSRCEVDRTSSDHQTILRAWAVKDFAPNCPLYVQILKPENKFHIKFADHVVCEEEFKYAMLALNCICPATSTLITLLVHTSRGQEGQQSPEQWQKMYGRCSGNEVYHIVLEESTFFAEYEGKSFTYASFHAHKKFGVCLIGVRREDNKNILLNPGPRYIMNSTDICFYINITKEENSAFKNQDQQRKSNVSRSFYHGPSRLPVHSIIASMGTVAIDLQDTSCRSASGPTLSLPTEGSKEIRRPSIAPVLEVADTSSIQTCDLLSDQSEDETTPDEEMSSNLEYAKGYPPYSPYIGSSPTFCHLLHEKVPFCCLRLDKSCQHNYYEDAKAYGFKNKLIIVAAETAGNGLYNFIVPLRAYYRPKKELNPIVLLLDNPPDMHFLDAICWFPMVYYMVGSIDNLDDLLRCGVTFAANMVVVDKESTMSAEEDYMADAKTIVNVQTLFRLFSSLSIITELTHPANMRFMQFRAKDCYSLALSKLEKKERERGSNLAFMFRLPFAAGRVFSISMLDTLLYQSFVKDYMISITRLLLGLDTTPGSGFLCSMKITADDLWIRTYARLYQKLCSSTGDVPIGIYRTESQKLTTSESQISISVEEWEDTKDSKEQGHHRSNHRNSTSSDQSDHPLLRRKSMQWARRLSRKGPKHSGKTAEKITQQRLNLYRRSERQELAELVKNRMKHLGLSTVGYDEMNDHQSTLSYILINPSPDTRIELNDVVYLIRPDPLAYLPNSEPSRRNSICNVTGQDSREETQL

[3] = human, HEK-293 cells stably expressing hERG

O=C(c1ccc(OCc2ccc(OC(F)(F)F)cc2)cc1)N1CCN(c2ccc(C(F)(F)F)cn2)CC1 [VU6032735]
selectivity ratio [1, 3]: 172
IC50 [1]: 28.3 µM
inhibition at 10 µM [2]: 22%

Cc1cc(Cl)cc2sc(OC3CCN(C(=O)CCCS(=O)(=O)c4cccc(Br)c4)CC3F)nc12 (centres unmarked) [VU6045330]
selectivity ratio [1, 3]: 555
IC50 [1]: 73.3 µM
inhibition at 10 µM [2]: 22%

Cc1cc(Cl)cc2sc(O[C@H]3CCN(C(=O)CCCS(=O)(=O)c4cccc(Br)c4)C[C@H]3F)nc12 [VU6047606]
IC50 ([1]; human, HEK-293 cells stably expressing hERG, pH 7.35): 12.7 µM
IC50 [1]: 12 µM
inhibition at 10 µM [2]: 4%

Cc1cc(Cl)cc2sc(O[C@@H]3CCN(C(=O)CCCS(=O)(=O)c4cccc(Br)c4)C[C@H]3F)nc12 [VU6047607]
IC50 [1]: 17 µM

Cc1cc(Cl)cc2sc(O[C@H]3CCN(C(=O)CCCS(=O)(=O)c4cccc(Br)c4)C[C@@H]3F)nc12 [VU6047609]
IC50 [1]: 56 µM
